From patent US20250129012A1, “ANTI-INFLAMMATORY AND ANALGESIC COMPOUNDS AND USE THEREOF” (JIANGSU ATOM BIOSCIENCE AND PHARMACEUTICAL CO., LTD., priority 2021, published 2025)
Where two headings read alike, the source gives them in different places. Marks after values point to notes of the source that are not given here.

Experiments:
[1] = test system: gouty arthritis in rats (urate crystals, left ankle joint); assay: Pharmacodynamics experiment A on gouty arthritis in rats: paw volume; type: in vivo, SD rats; details: for Paw volume versus model group, in words: time points after modeling; for Paw volume: Mean ± SEM
Procedure: (§1) Compounds 2, 17, 26 and 27 were prepared by grinding with 0.5% CMC-Na into a suspension of the corresponding concentration (0.06 mg/mL) for gavage before administration, and the volume of administration was 10 mL/kg. […] Before use, 0.5% CMC-Na was used for grinding and prepared into a suspension of the corresponding concentration (0.06 mg/mL) for gavage, and the volume of drug administered was 10 mL/kg.
(§2) Each group of subjects was prepared into a suspension of the corresponding concentration, and the administration volume was 10 mL/kg.
(§3) The crystalline arthritis model was prepared by intra-articular injection of urate crystals (40 mg/mL, in the left ankle joint of each rat). Different doses of the test drug were given separately by gavage administration. The day of administration was defined as day 1 of the experiment, and the drug was administered once a day for 10 consecutive days (pre-administration of the drug for 7 days prior to modeling, modeling on day 8, and continuation of the drug for 3 days). The experiment ended on day 10.
Paw volume was measured before administration, before urate injection, and 2, 4, 8, 10, 24, and 48 h after injection.
(§4) The data obtained from the experiment were statistically analyzed using IBM SPSS Statistics 22.0. All measurements were expressed as Mean±S.E.M s. The data were analyzed using SPSS 22.0 statistical software and variance chi-square test was performed on the parameters.

[2] = test system: gouty arthritis in rats (urate crystals, left ankle joint); assay: Pharmacodynamics experiment A on gouty arthritis in rats: gait score; type: in vivo, SD rats; set-up: Gait Score: scale not given here; details: 0.6 mg/kg gavage; for Gait versus model group, in words: time points after modeling, P<0.05 or P<0.01; for Gait Score: Mean ± SEM
Procedure: as §1, §2, §3
The degree of lameness of the modeled joints was observed and scored at the same time point.
as §4

[3] = test system: gouty arthritis in rats (urate crystals, left ankle joint); assay: Pharmacodynamics experiment A on gouty arthritis in rats: pain score; type: in vivo, SD rats; set-up: Pain score: scale not given here; details: 0.6 mg/kg gavage; for Pain versus model group, in words: time points after modeling, P<0.05 or P<0.01; for Pain score: Mean ± SEM
Procedure: as §1, §2, §3
The pain level was scored using the flexion and extension joint pain test scoring method at the same time point.
as §4

[4] = In vivo pharmacokinetics in SD rats
Procedure: Compound stock solution preparation: an appropriate amount of solid powder of the compounds were weighed separately, a certain amount of DMSO was added and 20 mg/mL of stock solution was obtained under vortex ultrasound.
Preparation of test compound for gavage: an appropriate amount of compound stock solution was taken by pipette, a certain amount of Solutol HS15 solution was added, the mixture was vortexed for 1 minute, then a certain amount of saline was added, and 1 mg/mL of solution was obtained after mixing well.
Preparation of test compounds for intravenous injection: an appropriate amount of compound stock solution was taken by pipette separately, a certain amount of Solutol HS15 solution was added, the mixture was vortexed for 1 minute, then a certain amount of physiological saline was added and a solution of 0.5 mg/mL was obtained after mixing well.
The animals were fasted overnight before administration by gavage, and food was given 4 hours after administration, during which they were free to drink. Two groups were set for each test compound, intravenous injection group and oral administration group, and the dose and mode of administration were shown in Table 12 below.
The blood samples were centrifuged at 4° C. for 5 min at 2,000 g to separate the plasma. The plasma samples were analyzed by LC/MS/MS to detect the concentration of each test compound in the plasma samples.
The parameters related to the […] were obtained by calculations with WinNonlin® Professional software.

[5] = 2 h after modeling, 0.6 mg/kg gavage
[6] = 4 h after modeling, 0.6 mg/kg gavage
[7] = 8 h after modeling, 0.6 mg/kg gavage
[8] = 10 h after modeling, 0.6 mg/kg gavage
[9] = 24 h after modeling, 0.6 mg/kg gavage
[10] = 48 h after modeling, 0.6 mg/kg gavage
[11] = before modeling, 0.6 mg/kg gavage once a day
[12] = Sprague-Dawley, rat, in vivo, iv, 1 mg/kg
[13] = Sprague-Dawley, rat, in vivo, po, 10 mg/kg

| Structure (SMILES) | Paw volume versus model group, in words ([1]; 0.6 mg/kg gavage) | Paw volume [1, 5] | Paw volume [1, 6] | Paw volume [1, 7] | Paw volume [1, 8] | Paw volume [1, 9] [cm^3] | Paw volume [1, 10] | Paw volume [1, 11] [cm^3] | Gait versus model group, in words [2] | Gait Score ([2]; 2 h after modeling) | Gait Score ([2]; 4 h after modeling) | Gait Score ([2]; 8 h after modeling) | Gait Score ([2]; 10 h after modeling) | Gait Score ([2]; 24 h after modeling) | Gait Score ([2]; 48 h after modeling) | Gait Score ([2]; before modeling) | Pain versus model group, in words [3] | Pain score ([3]; 2 h after modeling) | Pain score ([3]; 4 h after modeling) | Pain score ([3]; 8 h after modeling) | also measured |
| --- | --- | --- | --- | --- | --- | --- | --- | --- | --- | --- | --- | --- | --- | --- | --- | --- | --- | --- | --- | --- | --- |
| COc1cc2c(c(OC)c1OC)-c1ccc(NS(C)(=O)=O)c(=O)cc1[C@@H](NC(C)=O)CC2 [Compound 2, (S)—N-(1,2,3-trimethoxy-10-methanesulfonylamino-9-oxo-5,6,7,9-tetrahydrobenzo[a]heptalen-7-yl)acetamide] | significantly reduce the paw volume at 2 h, 4 h, and 48 h | 2.51 ± 0.06* cm^3 | 2.54 ± 0.04* cm^3 | 2.63 ± 0.06 cm^3 | 2.59 ± 0.07 cm^3 | 2.52 ± 0.08 | 2.35 ± 0.06* cm^3 | 2.18 ± 0.02 | significantly improved the gait at 2 h, 8 h, 24 h, and 48 h | 1.10 ± 0.10 | 1.10 ± 0.10 | 1.10 ± 0.10 | 1.20 ± 0.13 | 1.00 ± 0.00 | 1.00 ± 0.00 | 0.00 ± 0.00 | significantly improved pain at 2 h, 4 h, 8 h, 10 h, 24 h, and 48 h | 2.70 ± 0.68 | 1.30 ± 0.52 | 3.30 ± 0.54 | Pain score ([3]; 10 h after modeling): 2.20 ± 0.68; Pain score ([3]; 24 h after modeling): 1.30 ± 0.62; Pain score ([3]; 48 h after modeling): 1.00 ± 0.67; Pain score ([3]; before modeling): 0.00 ± 0.00 |
| COc1cc2c(c(OC)c1OC)-c1ccc(=O)c(OC3CCOC3)cc1[C@@H](NC(C)=O)CC2 (stereo partly drawn) [Compound 27, (S)—N-(1,2,3-trimethoxy-10-oxo-9-[(tetrahydrofuran-3-yl)oxy]-5,6,7,10-tetrahydrobenzo[a]heptalen-7-yl)acetamide] | significantly reduce the paw volume at 2 h, 4 h, 8 h, 10 h, and 48 h | 2.51 ± 0.04** cm^3 | 2.54 ± 0.03* cm^3 | 2.57 ± 0.04* cm^3 | 2.55 ± 0.04* cm^3 | 2.50 ± 0.07 | 2.29 ± 0.04** cm^3 | 2.16 ± 0.04 | significantly improved the gait at 2 h, 24 h, and 48 h | 1.00 ± 0.00 | 1.10 ± 0.10 | 1.40 ± 0.22 | 1.20 ± 0.20 | 1.00 ± 0.00 | 1.00 ± 0.00 | 0.00 ± 0.00 | significantly improved gait at 2 h, 8 h, 10 h, 24 h, and 48 h | 2.00 ± 0.67 | 2.80 ± 0.68 | 3.30 ± 0.47 | Pain score ([3]; 10 h after modeling): 2.50 ± 0.65; Pain score ([3]; 24 h after modeling): 1.50 ± 0.60; Pain score ([3]; 48 h after modeling): 1.00 ± 0.60; Pain score ([3]; before modeling): 0.00 ± 0.00 |
| CNC(=O)c1ccc2c(cc1=O)[C@@H](NC(C)=O)CCc1cc3c(c(OC)c1-2)OCO3 [Compound 125, (S)-6-acetamido-13-methoxy-N-methyl-4-oxo-4,6,7,8-tetrahydroheptalen[1′,2′:4,5]benzo[1,2-d][1,3]dioxolane-3-carboxamide] | – | – | – | – | – | – | – | – | – | – | – | – | – | – | – | – | – | – | – | – | F ([4]; Gavage - 10 mg/kg, calculated by AUCINF): 93.0%; AUC(0-inf) ([4]; Sprague-Dawley, rat, in vivo, po, Gavage - 10 mg/kg, read-out: AUCINF): 5.46 µg·h/mL; Cmax ([4]; Sprague-Dawley, rat, in vivo, po, Gavage - 10 mg/kg, read-out: Cmax): 4.15 µg/mL; MRT inf ([4]; Sprague-Dawley, rat, in vivo, po, Gavage - 10 mg/kg, read-out: MRTINF): 1.8 h; Tmax ([4]; Sprague-Dawley, rat, in vivo, po, Gavage - 10 mg/kg, read-out: Tmax): 0.25 h; half-life ([4]; Sprague-Dawley, rat, in vivo, po, Gavage - 10 mg/kg, read-out: t1/2 (converted)): 3.33 h; AUC(0-inf) ([4]; Sprague-Dawley, rat, in vivo, Intravenous injection - 1 mg/kg, read-out: AUCINF): 0.587 µg·h/mL; clearance ([4]; Sprague-Dawley, rat, in vivo, Intravenous injection - 1 mg/kg, read-out: CL (converted)): 1.71 L/h/kg; MRT inf ([4]; Sprague-Dawley, rat, in vivo, Intravenous injection - 1 mg/kg, read-out: MRTINF): 0.675 h; Vd ([4]; Sprague-Dawley, rat, in vivo, Intravenous injection - 1 mg/kg, read-out: VSS): 1.15 L/kg; half-life ([4]; Sprague-Dawley, rat, in vivo, Intravenous injection - 1 mg/kg, read-out: t1/2 (converted)): 1.19 h |
| [2H]C([2H])([2H])Oc1c(OC)c(OC)cc2c1-c1ccc(C(=O)NC)c(=O)cc1[C@@H](NC(C)=O)CC2 [Compound 132, (S)-7-acetamido-2,3-dimethoxy-1-trideuteromethoxy-N-methyl-9-oxo-5,6,7,9-tetrahydrobenzo[a]heptalen-10-carboxamide] | – | – | – | – | – | – | – | – | – | – | – | – | – | – | – | – | – | – | – | – | F ([4]; Sprague-Dawley, rat, in vivo, 10 mg/kg): 47.5%; AUC(0-inf) [4, 12]: 0.702 µg·h/mL; MRT inf [4, 12]: 1.06 h; Vd [4, 12]: 1.39 L/kg; clearance [4, 12]: 1.46 L/h/kg; half-life [4, 12]: 2.12 h; AUC(0-inf) [4, 13]: 3.33 µg·h/mL; Cmax [4, 13]: 1.78 µg/mL; MRT inf [4, 13]: 2.1 h; Tmax [4, 13]: 0.25 h; half-life [4, 13]: 1.39 h |
